Entries after “also recorded” stand apart in the source; their conditions may differ.
What was measured:
[1] = test system: cell-free protein synthesis; test: Cell-free protein synthesis (myTXTL): NarX western blot band intensity and luminescence; type: biochemical, E. coli; conditions: increasing ligand concentration; NarX band intensity / luminescence (FIG. 7, FIG. 14)
Method: (§1) Protein expression was performed using the myTxTl system (Arbor Biosceinces). 5 μL reactions were assembled with 10 mM lipid, 0.1 nM plasmid encoding T7 RNA polymerase, 9.9 nM plasmids encoding NarX, NarL, and reporter gene (nano luciferase or GFP) in specified ratios, and various concentration of ligands. Cell-free reactions were allowed to progress at 30° C. for 16 hours. Luciferase luminescence was read using the NanoGlo luciferase system and GFP fluorescence (ex. 480 nm, em. 507 nm) was read using a Molecular Devices Spectra Max i3 plate reader. To calculate fold change, luminescence values in the presence of nitrate were divided by the luminescence values in the absence of nitrate for each replicate.
1 μL of cell-free reaction was diluted to 15 μL in Laemlli buffer and heated at 95° C. for 10 minutes. Samples were then loaded and run on a 12% Mini-PROTEAN TGX Precast Protein Gel (Bio-Rad) at 150 V for 90 minutes. Wet transfer was performed onto a PVDF membrane (Bio-Rad) for 45 min at 100 V. Membranes were then blocked for an hour at room temperature in 5% milk in TBST (pH 7.6:50 mM Tris, 150 mM NaCl, HCl to pH 7.6, 0.1% Tween) and incubated for 1 hour at room temperature or overnight at 4° C. with primary solution (anti-Flag (Sigma F1804) or anti-Myc (ab32), diluted 1:1000 in 5% milk in TBST). Primary antibody solution was decanted, and the membrane was washed three times for 5 minutes in TBST and then incubated in secondary solution at room temperature for 1 hour (HRP-anti-Mouse (CST 7076) diluted 1:3000 in 5% milk in TBST). Membranes were then washed in TBST and incubated with Clarity Western ECL Substrate (Bio-Rad) for 5 min. Blots were imaged using an Azure Biosystems c280 imager and band intensities were quantified with ImageJ.

NarX [2] = molecular target: T1, NarX (Escherichia coli, UniProt P0AFA2, T450I/V366A); test: Lyophilized NarX-L reactions rehydrated in non-ideal media; type: biochemical, E. coli; conditions: 100 μM nitrate; rehydrated with Milli-Q water, lake water or FBS; 30° C.
T1 construct: All genes were; made in house; host or cells: cell-free expression in situ, myTXTL E. coli extract (Arbor Biosciences), with synthetic lipid vesicles
Method: As a control, we flash froze reactions and allowed them to proceed without lyophilization. […] To remediate this, we lyophilized vesicles and reactions separately. When rehydrating reactions, we rehydrated vesicles with water and then mixed the rehydrated vesicles, lyophilized cell-free components, and rehydration media (water, lake water, or FBS) with or without 100 μM nitrate. We then allowed reactions to proceed at 30° C. […] To deploy biosensors out of the lab, one must understand how quickly they are able to sense a ligand. […] We furthermore envision that these systems could be leveraged to engineer targeted drug delivery systems or for point-of-use biosensing.
Cell-free reactions were prepared as above, omitting vesicles and ligand. Reactions and vesicles were then flash frozen and lyophilized overnight. Following lyophilization, vesicles were rehydrated in water and cell free reactions were rehydrated in various media, such as Mili-Q water, Lake Water from Lake Michigan, and 50% FBS containing either 100 μM nitrate or an equivalent volume of water. Vesicles and reactions were allowed to rehydrate for 30 minutes on ice. Finally, vesicles were added to each reaction to bring the total volume to 5 μL and reactions were allowed to proceed at 30° C. for 16 hours.

NarX [3] = molecular target: T1, NarX; test: Cell-free NarX-L nitrate sensing, nanoluciferase reporter luminescence; type: biochemical, E. coli
Text: As a first step towards understanding how TCSs can be integrated into cell-free systems, we tested the functional expression of NarX and NarL. The analyte for this sensor, nitrate, is a known ground water contaminate (30), serves as a convenient input, and previous work has characterized and engineered NarL mutants and its cognate promoter (26), ensuring that downstream gene transcription is a result of cell-free expressed NarL. We assembled cell-free reactions containing the myTXTL system (31), three DNA templates, liposomes, and assessed the reactions in response to nitrate addition. Two templates contained genes for either NarX or a NarL mutant (26) under the control of T7 RNA polymerase. The third template served as a genetic reporter for TCS signaling and contained a reporter gene (nanoluciferase) under the control of a promoter to which NarL binds (32). Finally, we included 100 nm lipid vesicles composed of 1,2-dimyristoyl-sn-glycero-3-phosphocholine (DMPC) into which NarX could integrate (FIG. 1A). Upon addition of nitrate, NarX should phosphorylate NarL, which should then bind the reporter plasmid and induce downstream luciferase expression (FIG. 1A).
as §1

NarX [4] = molecular target: T1, NarX; test: Cell-free NarX-L system encapsulated in giant unilamellar vesicles; type: biochemical, E. coli; conditions: 1 mM nitrate, GUVs of POPC:cholesterol with rhodamine lipid, 30° C. 16 hours, with RNase
Text: Over the last decade, many promising cell-free systems have been developed, enabling the delivery and sensing of a wide array of ligands in non-ideal environments. Cell-free systems have been encapsulated and administered to mice (47), lyophilized and used in resource limited settings (6, 7), and integrated into wearable materials to sense environmental contaminants (8). Towards the goal of creating cell-mimetic particles which can sense environmental stimuli in complex environments, such as the body, we encapsulated our cell-free system into giant unilamellar vesicles using the emulsion transfer method (FIG. 5A). We encapsulated cell-free extract containing plasmids encoding NarX, NarL, and the downstream protein (luciferase or mEGFP) into membranes composed of 1 POPC: 1 cholesterol and a rhodamine conjugated lipid. We hypothesized that by encapsulating cell-free reaction components into vesicles, NarX could insert into membranes and initiate signaling in response to exogenously added nitrate. […]
For samples containing the luciferase plasmid, 0.5 μL of NanoGlo Luciferase substrate was added to the reaction, and reactions were read on a Molecular Devices Spectra Max i3 plate reader. […] Images were analyzed using the Nikon NIS software.

[5] = Dynamic light scattering of 100% POPC vesicles in the presence of ligands (liposome stability); type: physicochemical; conditions: 100% POPC vesicles in the presence of 1 mM ligand

T1 sequence (P0AFA2 other isoform, or with tags, fused parts or gaps V366A/T450I): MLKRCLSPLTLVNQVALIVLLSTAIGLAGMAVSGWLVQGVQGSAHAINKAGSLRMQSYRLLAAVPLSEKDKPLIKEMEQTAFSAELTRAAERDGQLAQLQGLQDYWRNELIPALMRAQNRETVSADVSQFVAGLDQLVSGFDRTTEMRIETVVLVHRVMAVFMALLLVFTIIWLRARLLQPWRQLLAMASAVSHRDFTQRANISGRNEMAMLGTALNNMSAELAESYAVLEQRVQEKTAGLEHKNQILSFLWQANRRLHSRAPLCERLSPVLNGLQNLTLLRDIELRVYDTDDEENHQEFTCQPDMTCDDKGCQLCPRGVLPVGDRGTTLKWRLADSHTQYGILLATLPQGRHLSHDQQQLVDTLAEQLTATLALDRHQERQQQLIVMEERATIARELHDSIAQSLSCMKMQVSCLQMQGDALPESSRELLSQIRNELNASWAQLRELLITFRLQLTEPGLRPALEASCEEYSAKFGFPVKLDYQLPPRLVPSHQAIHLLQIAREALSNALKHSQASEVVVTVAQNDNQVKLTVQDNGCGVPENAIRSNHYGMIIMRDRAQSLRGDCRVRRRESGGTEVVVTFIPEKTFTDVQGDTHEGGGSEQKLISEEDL

## O=[N+]([O-])[O-].[Na+] [Nitrate, sodium nitrate]
[1]
  effect on cell-free protein expression: inhibit protein synthesis; also recorded: inhibits protein expression
NarX [2]
  sensing of nitrate after lyophilization and rehydration: could sense 100 μM nitrate in all conditions
NarX [3]; absence of vesicles (FIG. 1C)
  increase in luminescence in nitrate titration: 2 fold
NarX [3]; all components present, DMPC vesicles (FIG. 1B)
  increase in luminescence compared to reactions run in the absence of nitrate: ~3 fold
NarX [3]; nitrate sample vs water sample, p<0.03, n=2 (FIG. 18)
  time to differentiate a positive from a negative signal (luminescence over time): 6.5 h
NarX [3]; nitrate titration
  nitrate concentration at which the cell-free system lost sensitivity: 10 mM
NarX [3]; nitrate titration, cell-free system
  detection of nitrate at levels as low as: 10 µM
NarX [3]; wild-type NarX, nitrate vs nickel (FIG. 4F)
  specificity of activation by ligand: specifically turn ‘on’
NarX [4]
  sensing of exogenously added nitrate by encapsulated sensor (microscopy and bulk plate reader): able to sense exogenous nitrate
[5]
  Diameter (nm): 123.26 nm
  P.D.I.: 0.278

Reference: patent publication US20250137032A1, “TWO-COMPONENT SYSTEMS FOR USE IN CELL-FREE GENE EXPRESSION” (priority 2023, published 2025)
